Results on 1 compound are retold here after PMC8830019, “A sensitive, accurate, and high-throughput gluco-oligosaccharide oxidase-based HRP colorimetric method for assaying lytic polysaccharide monooxygenase activity” (Biotechnology for Biofuels and Bioproducts, 2022).

This experiment has as its target T1, SsGOOX (recombinant gluco-oligosaccharide oxidase) (Sarocladium strictum, UniProt Q6PW77).
T1 construct: gene gluO; T. reesei cbh1 signal peptide at N-terminus, C-terminal 6xHis; codon-optimised synthetic gene, secreted by Trichoderma reesei QM9414
T1 sequence (Q6PW77 26-499): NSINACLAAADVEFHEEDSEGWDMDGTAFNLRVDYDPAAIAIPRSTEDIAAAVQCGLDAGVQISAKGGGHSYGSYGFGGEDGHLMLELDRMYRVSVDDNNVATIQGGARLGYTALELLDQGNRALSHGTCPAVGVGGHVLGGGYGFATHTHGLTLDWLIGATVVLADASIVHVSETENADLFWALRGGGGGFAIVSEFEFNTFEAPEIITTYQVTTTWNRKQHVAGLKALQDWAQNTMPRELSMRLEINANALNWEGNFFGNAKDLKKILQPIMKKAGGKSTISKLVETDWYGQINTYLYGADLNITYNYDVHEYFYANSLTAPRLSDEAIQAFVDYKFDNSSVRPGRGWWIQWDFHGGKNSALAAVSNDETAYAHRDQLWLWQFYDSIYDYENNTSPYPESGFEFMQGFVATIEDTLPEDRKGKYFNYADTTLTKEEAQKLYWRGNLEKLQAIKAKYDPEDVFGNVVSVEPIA
Put plainly: HRP-coupled colorimetric H2O2 assay (4-AAP / DCHBS, A515), modified Hill's model with substrate inhibition. In kind it is biochemical. To be noted: pH 7.0 phosphate, room temperature (about 26 C), 10 nM enzyme, 0.02-5 mM cellobiose; Hill-type fit with substrate inhibition; substrate inhibition constant; second site.

For `OC[C@H]1O[C@@H](O[C@H]2[C@H](O)[C@@H](O)C(O)O[C@@H]2CO)[C@H](O)[C@@H](O)[C@@H]1O` (stereo partly shown) [cellobiose], the Ki is 995 µM.
